Data reported in a melting point compilation (Tetko et al.; mined from patent text by program, amines drawn as free bases though some values may be those of a salt).

| SMILES | melting point [°C] |
| --- | --- |
| CNC(=O)c1cc2c(OC[C@@H](O)CN3CCC(c4ccc5ccccc5c4)CC3)cccc2n1C | 180 to 183 |
| CCOC(=O)COc1cc2cc(CC(C)C)sc2c(Cl)c1Cl | 75 to 76 |
| CC(Oc1ccc(Oc2cnc3cc(Cl)ccc3n2)cc1)C(=O)Nc1ccc(C(F)(F)F)cc1 (configuration not stated) | 176 to 178 |
| CCOC(=O)CSc1nnc(S)s1 | 67 to 68 |
| CCCCCS(=O)(=O)NC(=O)/C=C/c1ccc(OCCOC2CC2)cc1Oc1ncc(C(F)(F)F)cc1Cl | 105 to 106 |
| Fc1cc(Br)ccc1-c1ccc(Cl)cc1Cl | 63 to 65 |
| O=Cc1nn(-c2ccccc2)c2c1CCC2 | 108 to 109 |
| CC(C)(C)CNc1nc(N2CCCC2)cc(N2CCNCC2)n1 | 118 to 120 |
| C#Cc1ccc(C(=O)OC)nc1 | 40 to 45 |
| N#CCC1COc2ccccc2O1 (configuration not stated) | 66 to 67 |
| NC(=NO)c1nn(-c2c(Cl)cc(C(F)(F)F)cc2Cl)c(N)c1S(=O)C(F)(F)F (configuration not stated) | 203 to 205 |
| CC(C(=O)NC(=O)OCC(F)(F)F)(c1ccccc1)c1ccccc1 | 143 to 145 |
| CC(=O)Nc1cc(Oc2ccc3c(C(=O)Nc4cc(-n5cnc(C)c5)cc(C(F)(F)F)c4)cccc3c2)ncn1 | 291 to 293 |
| O=C(c1ccc(-c2ccccc2)cc1)c1ccc2n1Cc1ccccc1N(C(=O)COc1ccc(Cl)cc1)C2 | 155 to 157 |
| CCCc1ccc(C(=O)O)c2ccccc12 | 134 to 135 |
| O=C1C(=Cc2ccc(-c3cccs3)s2)CCc2cc(OCCn3ccnc3)ccc21 | 180 to 181 |
| O=C(Nc1cccc2c1C(=O)c1c-2n[nH]c1-c1ccc(C(=O)N2CCC[C@H]2CO)s1)NN1CCOCC1 | 267 to 268 |
| CCCCCCCCCCCCCCCCC(Cl)C(=O)O (configuration not stated) | 63.5 to 64 |
| O=C(N[C@H](Cc1ccc(Cl)c(OC(F)(F)C(F)F)c1)[C@@H](O)c1ccc(F)cc1)c1ccc(F)c2ccccc12 (racemic) | 206 to 207 |
| CCCCCCCCCCCCCCCc1cccc(OC)c1C1NC(=O)NC(C)=C1C(=O)OC (configuration not stated) | 101 to 102 |
| Cc1sc([Si](C)(C)C)cc1C1=C(c2cc([Si](C)(C)C)sc2C)C(F)(F)C(F)(F)C1(F)F | 91.4 |
| OC(c1ccncc1)c1c[nH]c2ccc(F)cc12 (configuration not stated) | 171 to 173 |
| CCCCCCCCCCOc1cc(OCCCCCCCCCC)cc(C(=O)C(=O)OC)c1 | 49 to 50 |
| O=C1Nc2ccccc2SC1c1ccc(F)cc1 (configuration not stated) | 216 to 219 |

| SMILES | melting point [°C] |
| --- | --- |
| CNC(=O)C1C(C)(C)C1(C)C | 98 |
| NC(=O)CNC(=O)c1cccc(-c2cccc3cc(Cc4cc(F)cc(Cl)c4)sc23)n1 | 200 to 201 |
| CC(C)C[C@H](NC(=O)OC(C)(C)C)C(=O)N1CCN(C(c2ccc(F)cc2)c2ccc(F)cc2)CC1 | 59 to 66 |
| NC(=S)NN=C(CCCCl)c1ccccc1 | 128 to 130 |
| O=C1N(Cc2ccc(Cl)s2)c2ccccc2C1(O)c1cc(OCc2ccccc2)ccc1O (configuration not stated) | 174 to 175 |
| Nc1ccc2ccccc2c1[N+](=O)[O-] | 123 to 125 |
| C[C@@H]1CN(C(=O)[C@@](C)(O)C(F)(F)F)[C@@H](C)CN1S(=O)(=O)c1ccc(C(=O)O)cc1 | 194 to 196 |
| CCC(=NOC)c1cc(I)c(O)c(CN)c1 | 156 to 157 |
| O=C(CN(C(=O)OCc1ccccc1)c1ccc(Cl)cc1)NCCc1ccc(OCc2ccccc2)c(OCc2ccccc2)c1 | 114 to 116 |
| CC(C)(C)CNc1nc(C#N)nc2ccc(OCc3ccncc3)cc12 | 203 to 205 |
| CC1Cc2cc(Cl)c(Cl)cc2C(c2ccc([N+](=O)[O-])cc2)=NN1 (configuration not stated) | 182 to 184 |
| COC(=O)[C@@H]1C[C@H](NS(C)(=O)=O)C(=O)[C@H]2[C@@]1(C)CC[C@H]1C(=O)O[C@H](c3ccoc3)C[C@]21C | 262 to 265 |
| Nc1c2c(nc3ccccc13)C1CCC2CC1 | 197 to 199 |
| OCCCNc1nc2cc(C(F)(F)F)c(Br)cc2n2ccnc12 | 148 to 161 |
| CCCCC(C(=O)c1ccc(Cl)cc1)n1cncn1 (configuration not stated) | 81 to 83 |
| N#Cc1ccc(N2C(=O)C3C(O)CCCN3C2=O)c2ccccc12 (configuration not stated) | 243 |
| CC(C)=CCOC(=O)c1cnn(-c2c(Cl)cc(Cl)cc2Cl)c1N | 102 to 105 |
| N#Cc1nccn1Cc1ccccc1 | 51 to 52 |
| CNC(=O)C(=NOC)C1=C(COc2ccccc2C)CC(C)=C(C)C1 | 96 to 98 |
| C=CC1(COC(C)=O)OC(OC2C(COCc3ccccc3)OC(OC)C(OCc3ccccc3)C2OCc2ccccc2)C(OC(C)=O)C(OC)C1OC(C)=O (configuration not stated) | 47 |
| O=C(Nc1ccc(Cl)c(C(F)(F)F)c1)N1NC(c2ccccc2)C(c2ccccc2)C1=O (configuration not stated) | 72 to 74 |
| CN(O)C(=N)c1nn(-c2c(Cl)cc(C(F)(F)F)cc2Cl)c(N)c1S(=O)C(F)(F)F (configuration not stated) | 187 to 191 |
| COc1ccc2c(c1)C(N1C(=O)c3ccccc3C1=O)C(=O)N2c1ccc(F)cc1 (configuration not stated) | 208 to 210 |
| C=CCN(CC=C)c1nc(NCC(=O)OC)n2oc(=O)nc2n1 | 173 to 174 |

| SMILES | melting point [°C] |
| --- | --- |
| Cc1ccc(OC(F)C(F)(F)F)c([N+](=O)[O-])c1[N+](=O)[O-] (configuration not stated) | 35 |
| Cc1cccc2c1NC(=O)C2 | 206 to 207 |
| COc1c(NC2CCC(=Cc3ccccc3)CC2)ccnc1C (configuration not stated) | 120 |
| COc1cc2ccccc2cc1OC | 112 to 113 |
| CC(C)n1nc(-c2[nH]c(=O)c(N)nc2-c2ccccc2)ccc1=O | > 250 |
| Cc1nccn1N=Cc1ccc(N(C)C)cc1 | 166 to 167 |
| CCOC(=O)c1cnc(-c2cc3cccc(N)c3n2COC)s1 | 188 to 190 |
| CC(=O)n1ncc2c(O)cccc21 | 140 to 142 |
| CCCC(=O)NCCc1c[nH]c2ccc3c(c12)CCCO3 | 91 to 93 |
| Oc1ccc2c(c1)CCCC(c1ccccc1)=C2c1ccc(OCCCCCSCc2ccc(C(F)(F)F)cc2)cc1 | 147 |
| Cc1nn(C)c2nc(C(C)C)c(CO)c(-c3ccc(F)cc3)c12 | 166 to 168 |
| CCN1CCc2c(NC(C)=O)ccc(Br)c2C1 | 168 to 169 |
| CNC(=O)C(C)Nc1nc(-c2ccc(F)c3ccccc23)cc(C(C)C)n1 (configuration not stated) | 141 to 142 |
| CC(=O)c1ccc(OCCOc2ccc3ccccc3c2)cc1F | 144 to 146 |
| CSc1cc([N+](=O)[O-])ccc1C(N)=O | 202 to 204 |
| CCOC(=O)/C(=N\OC(C)(CC)C(=O)OC(C)(C)C)c1csc(NC(c2ccccc2)(c2ccccc2)c2ccccc2)n1 (configuration not stated) | 122 to 125 |
| CCCc1nc2ccccc2c(C(=O)O)c1Oc1ccc(-c2ccccc2-c2nnn(C(c3ccccc3)(c3ccccc3)c3ccccc3)n2)cc1 | 167 to 170 |
| Cc1ccsc1C=Cc1nccn1C | 287 to 288 |
| Cc1c(C)c2ccc(OCCCc3ccccc3)cc2oc1=O | 104 |
| CCN(CC)C(=O)c1cc(-c2cccs2)c2occc2c1 | 64 |
| COc1nnc(N)c(=O)n1C | 198 to 199 |
| Cc1cc(Br)ccc1N1C(=O)c2ccc(Cl)cc2C1=O | 210 to 212 |
| NC(=NCC(F)(F)F)Nc1ccnc(CSCCNc2nc(N)n[nH]2)n1 | 199 to 201 |
| Cc1ccc2c(c1)CC(=S)N2 | 120 to 122 |
